From US20240109903A1, “SUBSTITUTED HETEROCYCLES FOR TREATING CANCER” (Northwestern University, priority 2022, published 2024)
Like-named read-outs stand apart in the source and are kept apart here.

Experiments:
SF-268 = experiment: NCI 60 five-dose screen SF-268; assay type: cell-based; details: Homo sapiens
HCT-116 = experiment: NCI 60 five-dose screen HCT-116; assay type: cell-based; details: Homo sapiens
full NCI 60 cell panel = experiment: NCI 60 Cell One-dose screen; assay type: cell-based, human; details: single high dose 10^−5 M, NCI 60 panel
Description: Compounds were submitted to the NCI 60 Cell screen and tested at a single high dose (10^−5 M) in the full NCI 60 cell panel (see the following reference for details of using NCI 60 human tumor cell lines for screening anticancer drugs: Shoemaker R H. The NCI60 human tumor cell line anticancer drug screen. Nature Rev Cancer 2006; 6: 813-23). The One-dose data is reported as a mean graph of the percent growth of treated cells. The number reported for the One-dose assay is growth relative to the no-drug control, and relative to the time zero number of cells. This allows detection of both growth inhibition (values between 0 and 100) and lethality (values less than 0). For example, a value of 100 means no growth inhibition. A value of 40 would mean 60% growth inhibition. A value of 0 means no net growth over the course of the experiment. A value of −40 would mean 40% lethality. A value of −100 means all cells are dead. FIGS. 1-8 show the mean graph of percent growth against the NCI-60 cell panel for NUCC-0226674, NUCC-0226679, NUCC-0226680, NUCC-0226683, NUCC-0226689, NUCC-0226694, NUCC-0226695, and NUCC-0226698.

SNB-75 = experiment: NCI 60 five-dose screen SNB-75; assay type: cell-based; details: Homo sapiens
OVCAR-8 = experiment: NCI 60 five-dose screen OVCAR-8; assay type: cell-based; details: Homo sapiens
OVCAR-5 = experiment: NCI 60 five-dose screen OVCAR-5; assay type: cell-based; details: Homo sapiens
DU-145 = experiment: NCI 60 five-dose screen DU-145; assay type: cell-based; details: Homo sapiens
HT29 = experiment: NCI 60 five-dose screen HT29; assay type: cell-based; details: Homo sapiens
RXF 393 = experiment: NCI 60 five-dose screen RXF 393; assay type: cell-based; details: Homo sapiens
SF-295 = experiment: NCI 60 five-dose screen SF-295; assay type: cell-based; details: Homo sapiens
SNB-19 = experiment: NCI 60 five-dose screen SNB-19; assay type: cell-based; details: Homo sapiens
EKVX = experiment: NCI 60 five-dose screen EKVX; assay type: cell-based; details: Homo sapiens
UACC-257 = experiment: NCI 60 five-dose screen UACC-257; assay type: cell-based; details: Homo sapiens
UACC-62 = experiment: NCI 60 five-dose screen UACC-62; assay type: cell-based; details: Homo sapiens
SK-MEL-2 = experiment: NCI 60 five-dose screen SK-MEL-2; assay type: cell-based; details: Homo sapiens
NCI/ADR-RES = experiment: NCI 60 five-dose screen NCI/ADR-RES; assay type: cell-based; details: Homo sapiens
SK-OV-3 = experiment: NCI 60 five-dose screen SK-OV-3; assay type: cell-based; details: Homo sapiens
KM12 = experiment: NCI 60 five-dose screen KM12; assay type: cell-based; details: Homo sapiens
PC-3 = experiment: NCI 60 five-dose screen PC-3; assay type: cell-based; details: Homo sapiens
[1] = test system: MV-4-11 acute myeloid leukemia cells; experiment: CellTiter-Glo 2.0 cell viability, MV-4-11; assay type: cell-based; details: Homo sapiens
Description: 2019 October; 94(4): 1813-1823.
Cell viability was assessed using the CellTiter-Glo 2.0 assay from Promega, which yields a signal proportional to the amount of ATP present in a cell population. Compounds were first dispensed into empty 96-well flat-bottom tissue culture-treated plates (Corning) using an Echo550. MV4-1 cells were diluted to a density of 0.1 million cells per ml, pipetted onto the compounds at a density of 1,000 cells per well for U937 and 3,000 cells per well for MV4-11, mixed, and incubated for 3 days at 37° C. with 5% C02. After incubating, 5 μl of cells from each well were added to 5 μl of CellTiter-Glo 2.0 reagent in a384-well white ProxiPlate (PerkinElmer), incubated for 20 minutes at ambient temperature, and luminescence was analyzed on an EnSpire plate reader. Graphing and regression analysis was performed in Graphpad Prism.

[2] = read-out: LC50 (the source's name) (converted)

O=c1ccc(Cn2c(C(F)(F)F)cc3c(Cl)ncnc32)c[nH]1 [NUCC-0226698]
GI50 (SF-268): 10.7 µM | IC50 (SF-268): 20.9 µM | IC (TGI) (SF-268): 28.8 µM | CC50 (SF-268; [2]): 79.4 µM | GI50 (HCT-116): 3.55 µM | IC50 (HCT-116): 4.17 µM | IC (TGI) (HCT-116): 29.5 µM | CC50 (HCT-116; [2]): ≥ 100 µM | growth inhibition in the One-Dose Screen (full NCI 60 cell panel): significant growth inhibition | GI50 (SNB-75): 10.7 µM | IC50 (SNB-75): 24 µM | IC (TGI) (SNB-75): 23.4 µM | CC50 (SNB-75; [2]): 50.1 µM | GI50 (OVCAR-8): 3.55 µM | IC50 (OVCAR-8): 4.79 µM | IC (TGI) (OVCAR-8): 17.4 µM | CC50 (OVCAR-8; [2]): ≥ 100 µM | GI50 (OVCAR-5): 61.7 µM | IC50 (OVCAR-5): 100 µM | IC (TGI) (OVCAR-5): 100 µM | CC50 (OVCAR-5; [2]): ≥ 100 µM | GI50 (DU-145): 38.9 µM | IC50 (DU-145): 61.7 µM | IC (TGI) (DU-145): 100 µM | CC50 (DU-145; [2]): ≥ 100 µM | GI50 (HT29; HT-29): 28.8 µM | IC50 (HT29; HT-29): 38 µM | IC (TGI) (HT29; HT-29): 100 µM | CC50 (HT29; HT-29, read-out: LC50 (the source's name) (converted)): ≥ 100 µM | GI50 (RXF 393): 11.2 µM | IC50 (RXF 393): 35.5 µM | IC (TGI) (RXF 393): 32.4 µM | CC50 (RXF 393; [2]): 91.2 µM | GI50 (SF-295): 28.2 µM | IC50 (SF-295): 50.1 µM | IC (TGI) (SF-295): 100 µM | CC50 (SF-295; [2]): ≥ 100 µM | GI50 (SNB-19): 20.9 µM | IC50 (SNB-19): 39.8 µM | IC (TGI) (SNB-19): 58.9 µM | CC50 (SNB-19; [2]): ≥ 100 µM | GI50 (EKVX): 14.1 µM | IC50 (EKVX): 30.9 µM | IC (TGI) (EKVX): 36.3 µM | CC50 (EKVX; [2]): 91.2 µM | GI50 (UACC-257): 3.16 µM | IC50 (UACC-257): 6.46 µM | IC (TGI) (UACC-257): 12.9 µM | CC50 (UACC-257; [2]): 75.9 µM | GI50 (UACC-62): 5.5 µM | IC50 (UACC-62): 11 µM | IC (TGI) (UACC-62): 20 µM | CC50 (UACC-62; [2]): 53.7 µM | GI50 (SK-MEL-2): 17 µM | IC50 (SK-MEL-2): 33.1 µM | IC (TGI) (SK-MEL-2): 32.4 µM | CC50 (SK-MEL-2; [2]): 63.1 µM | GI50 (NCI/ADR-RES): 14.1 µM | IC50 (NCI/ADR-RES): 27.5 µM | IC (TGI) (NCI/ADR-RES): 39.8 µM | CC50 (NCI/ADR-RES; [2]): ≥ 100 µM | GI50 (SK-OV-3): 44.7 µM | IC50 (SK-OV-3): 100 µM | IC (TGI) (SK-OV-3): 100 µM | CC50 (SK-OV-3; [2]): ≥ 100 µM | GI50 (KM12): 17.8 µM | IC50 (KM12): 30.2 µM | IC (TGI) (KM12): 39.8 µM | CC50 (KM12; [2]): 91.2 µM | GI50 (PC-3): 17 µM | IC50 (PC-3): 28.2 µM | IC (TGI) (PC-3): 56.2 µM | CC50 (PC-3; [2]): ≥ 100 µM | IC50 ([1]; MV4-11, 72 h, MV-4-11 cells, 3 days, CellTiter-Glo 2.0, read-out: IC50 (uM) [Cell Type: MV-4-11]): 1.26 µM | IC50 ([1]; MV4-11, bound stated in text, read-out: IC50 against MV-4-11 acute myeloid leukemia cells): < 2 µM
